Laboratory results reported in the supplement of paper PMC10307832.

How the values were obtained:
Test in all cases: relative viability (nuclei count vs DMSO), 5 days (fraction); higher = more cells survive
Dabrafenib + Dasatinib = compound: CC(C)(C)c1nc(-c2cccc(NS(=O)(=O)c3c(F)cccc3F)c2F)c(-c2ccnc(N)n2)s1 [Dabrafenib] + Cc1nc(Nc2ncc(C(=O)Nc3c(C)cccc3Cl)s2)cc(N2CCN(CCO)CC2)n1 [Dasatinib] (partner 0.075 µM)
Outline: (§1)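 Medians of duplicate plates are given as relative viability. That measure is the nuclei count in treated wells divided by the count in vehicle wells. Counts were taken on 4× images of lung cancer cell lines in 1536-well plates, 5 days after pin-tool dosing the day after seeding with one drug alone or a fixed anchor-drug dose plus five library-drug doses (not always all listed) in √10 steps.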

VX-702 + Trametinib = compound: NC(=O)c1ccc(N(C(N)=O)c2c(F)cccc2F)nc1-c1ccc(F)cc1F [VX-702] + CC(=O)Nc1cccc(-n2c(=O)n(C3CC3)c(=O)c3c(Nc4ccc(I)cc4F)n(C)c(=O)c(C)c32)c1 [Trametinib] (partner 0.02 µM)
Outline: as §1

VX-702 + Foretinib = compound: NC(=O)c1ccc(N(C(N)=O)c2c(F)cccc2F)nc1-c1ccc(F)cc1F [VX-702] + COc1cc2c(Oc3ccc(NC(=O)C4(C(=O)Nc5ccc(F)cc5)CC4)cc3F)ccnc2cc1OCCCN1CCOCC1 [Foretinib] (partner 0.25 µM)
Outline: as §1

VX-702 + Pictilisib = compound: NC(=O)c1ccc(N(C(N)=O)c2c(F)cccc2F)nc1-c1ccc(F)cc1F [VX-702] + CS(=O)(=O)N1CCN(Cc2cc3nc(-c4cccc5[nH]ncc45)nc(N4CCOCC4)c3s2)CC1 [Pictilisib] (partner 1 µM)
Outline: as §1

Row | Cell Line | relative viability (Dabrafenib + Dasatinib; first compound 0.003 µM) | relative viability (Dabrafenib + Dasatinib; first compound 0.009487 µM) | relative viability (Dabrafenib + Dasatinib; first compound 0.03 µM) | relative viability (Dabrafenib + Dasatinib; first compound 0.09487 µM) | relative viability (Dabrafenib + Dasatinib; first compound 0.3 µM) | relative viability (VX-702 + Trametinib; first compound 0.02 µM) | relative viability (VX-702 + Trametinib; first compound 0.2 µM) | relative viability (VX-702 + Trametinib; first compound 0.6325 µM) | relative viability (VX-702 + Trametinib; first compound 2 µM) | relative viability (VX-702 + Foretinib; first compound 0.02 µM) | relative viability (VX-702 + Foretinib; first compound 0.2 µM) | relative viability (VX-702 + Foretinib; first compound 0.6325 µM) | relative viability (VX-702 + Foretinib; first compound 2 µM) | relative viability (VX-702 + Pictilisib; first compound 0.02 µM) | relative viability (VX-702 + Pictilisib; first compound 0.2 µM) | relative viability (VX-702 + Pictilisib; first compound 0.6325 µM) | relative viability (VX-702 + Pictilisib; first compound 2 µM)
1 | NCI-H1993 | 0.627 | 0.665 | 0.607 | 0.845 | 0.856 | 0.607 | 0.495 | 0.527 | 0.576 | 0.717 | 0.773 | 0.754 | 0.693 | 0.871 | 0.808 | 0.757 | 0.834
2 | NCI-H2009 | 0.228 | 0.308 | 0.268 | 0.209 | 0.224 | 0.284 | 0.28 | 0.255 | 0.272 | 1.28 | 1.28 | 1.28 | 1.38 | 0.866 | 0.739 | 0.789 | 1.05
3 | NCI-H2023 | 0.559 | 0.589 | 0.586 | 0.516 | 0.673 | 0.497 | 0.458 | 0.458 | 0.558 | 0.761 | 0.722 | 0.724 | 1 | 0.238 | 0.228 | 0.192 | 0.221
4 | NCI-H2085 | 0.246 | 0.28 | 0.216 | 0.288 | 0.188 | 0.547 | 0.537 | 0.588 | 0.374 | 1.05 | 0.898 | 0.967 | 0.968 | 0.429 | 0.47 | 0.466 | 0.4
5 | NCI-H2087 |  | 0.894 | 0.798 | 0.519 | 0.657 | 0.201 | 0.181 | 0.186 | 0.228 | 1.18 | 0.915 | 1.12 | 1.23 | 0.861 | 0.729 | 0.881 | 0.783
6 | NCI-H2126 | 0.582 | 0.642 | 0.681 | 0.713 | 0.69 | 0.511 | 0.542 | 0.547 | 0.544 | 1.15 | 1.1 | 1.21 | 1.18 | 0.502 | 0.487 | 0.459 | 0.448
7 | NCI-H2170 | 0.597 | 0.483 | 0.53 | 0.618 | 0.544 | 0.999 | 0.891 | 0.958 | 0.987 | 1.07 | 1 | 1.08 | 1.03 | 0.339 | 0.317 | 0.324 | 0.283
8 | NCI-H2228 |  | 0.482 | 0.635 | 0.506 | 0.506 | 0.485 | 0.518 | 0.551 | 0.602 | 0.889 | 0.851 | 1.07 | 0.887 | 0.364 | 0.431 | 0.343 | 0.507
9 | NCI-H2347 |  | 0.309 | 0.308 | 0.448 | 0.38 | 0.188 | 0.314 | 0.384 | 0.282 | 1.49 | 0.828 | 1.16 | 1.03 | 0.754 | 0.596 | 0.703 | 0.347
10 | NCI-H2405 |  | 0.221 |  | 0.181 | 0.172 | 0.58 | 0.593 | 0.615 | 0.618 | 1.08 | 0.98 | 0.965 | 1.02 | 0.459 | 0.41 | 0.459 | 0.572
11 | NCI-H3122 | 0.773 | 0.767 | 0.908 | 0.793 | 0.75 | 0.24 | 0.201 | 0.206 | 0.203 | 0.964 | 0.946 | 1.01 | 0.923 | 0.572 | 0.59 | 0.578 | 0.589
12 | PC-3 [JPC-3] | 0.882 | 1.06 | 0.925 | 0.881 | 1.03 | 0.644 | 0.76 | 0.768 | 0.855 | 1.11 | 1.02 | 1.1 | 1.05 | 0.806 | 0.737 | 0.884 | 0.388
13 | PC-14 | 0.276 | 0.297 | 0.271 | 0.251 | 0.281 | 0.781 | 0.693 | 0.825 | 0.925 | 1.02 | 0.956 | 0.986 | 1.08 | 0.629 | 0.608 | 0.625 | 0.807
14 | RERF-LC-KJ | 0.73 | 0.919 | 0.92 | 0.799 | 0.989 | 0.749 | 0.872 | 0.86 | 0.919 | 0.995 | 0.923 | 0.984 | 0.934 | 0.562 | 0.435 | 0.625 | 0.601
15 | SK-LU-1 |  | 0.185 | 0.193 | 0.173 | 0.188 | 0.497 | 0.472 | 0.486 | 0.651 | 0.917 | 0.786 | 0.777 | 1.01 | 0.647 | 0.501 | 0.563 | 0.645
16 | SK-MES-1 | 0.323 | 0.412 | 0.417 | 0.317 | 0.289 | 0.546 | 0.52 | 0.481 | 0.523 | 0.935 | 0.97 | 0.934 | 0.911 | 0.342 | 0.293 | 0.364 | 0.313
17 | SW 1573 | 0.263 | 0.557 | 0.457 | 0.279 | 0.379 | 0.569 | 0.467 | 0.473 | 0.649 | 1.05 | 0.876 | 0.784 | 0.679 | 0.439 | 0.388 | 0.361 | 0.482
18 | UMC-11 | 0.43 | 0.462 | 0.41 | 0.446 | 0.501 | 0.682 | 0.544 | 0.562 | 0.846 | 0.988 | 0.843 | 0.893 | 1.21 | 0.696 | 0.762 | 0.582 | 0.813
